Source: PubChem BioAssay (NCI)
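All cell lines were grown in 96-well plates and treated with compound for 48 hours. GI50 marks 50% less growth. At the TGI there is no net growth.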

Columns and labels:
Test in all cases: inhibition of tumour cell growth, NCI panel, 48 h
SK-MEL-28 melanoma = tested on: SK-MEL-28 melanoma
SR leukemia = tested on: SR leukemia
SNB-78 CNS = tested on: SNB-78 CNS
KM20L2 colon = tested on: KM20L2 colon
DMS 114 small cell lung = tested on: DMS 114 small cell lung
MOLT-4 leukemia = tested on: MOLT-4 leukemia
M14 melanoma = tested on: M14 melanoma
NCI-H226 lung = tested on: NCI-H226 lung
HCC-2998 colon = tested on: HCC-2998 colon
HT29 colon = tested on: HT29 colon
SF-539 CNS = tested on: SF-539 CNS
OVCAR-5 ovarian = tested on: OVCAR-5 ovarian
SK-OV-3 ovarian = tested on: SK-OV-3 ovarian
HCT-116 colon = tested on: HCT-116 colon
SW-620 colon = tested on: SW-620 colon
ACHN renal = tested on: ACHN renal
DMS 273 small cell lung = tested on: DMS 273 small cell lung
UO-31 renal = tested on: UO-31 renal
SNB-19 CNS = tested on: SNB-19 CNS
RXF 393 renal = tested on: RXF 393 renal
M19-MEL melanoma = tested on: M19-MEL melanoma
SK-MEL-2 melanoma = tested on: SK-MEL-2 melanoma
HOP-92 NSCLC = tested on: HOP-92 NSCLC
NCI-H23 lung = tested on: NCI-H23 lung
TK-10 renal = tested on: TK-10 renal
U251 CNS = tested on: U251 CNS
IGROV1 ovarian = tested on: IGROV1 ovarian
A549 NSCLC = tested on: A549 NSCLC
OVCAR-8 ovarian = tested on: OVCAR-8 ovarian
MALME-3M melanoma = tested on: MALME-3M melanoma
CAKI-1 renal = tested on: CAKI-1 renal
HOP-62 NSCLC = tested on: HOP-62 NSCLC
K-562 leukemia = tested on: K-562 leukemia
EKVX NSCLC = tested on: EKVX NSCLC
SF-295 CNS = tested on: SF-295 CNS
COLO 205 colon = tested on: COLO 205 colon
SF-268 CNS = tested on: SF-268 CNS
OVCAR-3 ovarian = tested on: OVCAR-3 ovarian
SK-MEL-5 melanoma = tested on: SK-MEL-5 melanoma
HCT-15 colon = tested on: HCT-15 colon
RPMI-8226 leukemia = tested on: RPMI-8226 leukemia
NCI-H460 lung = tested on: NCI-H460 lung
SN12C renal = tested on: SN12C renal
OVCAR-4 ovarian = tested on: OVCAR-4 ovarian
UACC-257 melanoma = tested on: UACC-257 melanoma
CCRF-CEM leukemia = tested on: CCRF-CEM leukemia
HL-60(TB) leukemia = tested on: HL-60(TB) leukemia
NCI-H522 lung = tested on: NCI-H522 lung
UACC-62 melanoma = tested on: UACC-62 melanoma
A498 renal = tested on: A498 renal
KM12 colon = tested on: KM12 colon
786-0 renal = tested on: 786-0 renal
SNB-75 CNS = tested on: SNB-75 CNS
LOX IMVI melanoma = tested on: LOX IMVI melanoma
LXFL 529 NSCLC = tested on: LXFL 529 NSCLC
DLD-1 colon = tested on: DLD-1 colon

Which results are given for `C=CCCCC(C#N)(c1ccccc1)N1CCCC1` (configuration not stated)?
TGI (SK-MEL-28 melanoma): > 100 µM; TGI (SR leukemia): > 100 µM; TGI (SNB-78 CNS): > 100 µM; TGI (KM20L2 colon): > 100 µM; TGI (DMS 114 small cell lung): > 100 µM; TGI (MOLT-4 leukemia): > 100 µM; TGI (M14 melanoma): > 100 µM; TGI (NCI-H226 lung): > 100 µM; TGI (HCC-2998 colon): > 100 µM; TGI (HT29 colon): > 100 µM; TGI (SF-539 CNS): > 100 µM; TGI (OVCAR-5 ovarian): > 100 µM; TGI (SK-OV-3 ovarian): > 100 µM; TGI (HCT-116 colon): > 100 µM; TGI (SW-620 colon): > 100 µM; TGI (ACHN renal): > 100 µM; TGI (DMS 273 small cell lung): > 100 µM; TGI (UO-31 renal): > 100 µM; TGI (SNB-19 CNS): > 100 µM; TGI (RXF 393 renal): > 100 µM; TGI (M19-MEL melanoma): > 100 µM; TGI (SK-MEL-2 melanoma): > 100 µM; TGI (HOP-92 NSCLC): > 100 µM; TGI (NCI-H23 lung): > 100 µM; TGI (TK-10 renal): > 100 µM; TGI (U251 CNS): > 100 µM; TGI (IGROV1 ovarian): > 100 µM; TGI (A549 NSCLC): > 100 µM; TGI (OVCAR-8 ovarian): > 100 µM; TGI (MALME-3M melanoma): > 100 µM; TGI (CAKI-1 renal): > 100 µM; TGI (HOP-62 NSCLC): > 100 µM; TGI (K-562 leukemia): > 100 µM; TGI (EKVX NSCLC): > 100 µM; TGI (SF-295 CNS): > 100 µM; TGI (COLO 205 colon): > 100 µM; TGI (SF-268 CNS): > 100 µM; TGI (OVCAR-3 ovarian): > 100 µM; TGI (SK-MEL-5 melanoma): > 100 µM; TGI (HCT-15 colon): > 100 µM; TGI (RPMI-8226 leukemia): > 100 µM; TGI (NCI-H460 lung): > 100 µM; TGI (SN12C renal): > 100 µM; TGI (OVCAR-4 ovarian): > 100 µM; TGI (UACC-257 melanoma): > 100 µM; TGI (CCRF-CEM leukemia): > 100 µM; TGI (HL-60(TB) leukemia): > 100 µM; TGI (NCI-H522 lung): > 100 µM; TGI (UACC-62 melanoma): > 100 µM; TGI (A498 renal): > 100 µM; TGI (KM12 colon): > 100 µM; TGI (786-0 renal): > 100 µM; TGI (SNB-75 CNS): > 100 µM; TGI (LOX IMVI melanoma): > 100 µM

Which results are given for `[Co+2].[O-]c1ccccc1C=NCc1ccccc1.[O-]c1ccccc1C=NCc1ccccc1`?
GI50 (SK-MEL-28 melanoma): 6.9 µM; TGI (SK-MEL-28 melanoma): > 100 µM; GI50 (SNB-78 CNS): > 100 µM; TGI (SNB-78 CNS): > 100 µM; GI50 (KM20L2 colon): > 100 µM; TGI (KM20L2 colon): > 100 µM; GI50 (DMS 114 small cell lung): 28.7 µM; TGI (DMS 114 small cell lung): > 100 µM; GI50 (MOLT-4 leukemia): 6.37 µM; TGI (MOLT-4 leukemia): > 100 µM; GI50 (M14 melanoma): 28.3 µM; TGI (M14 melanoma): > 100 µM; GI50 (HT29 colon): 82.6 µM; TGI (HT29 colon): > 100 µM; GI50 (SF-539 CNS): 16.3 µM; TGI (SF-539 CNS): > 100 µM; GI50 (OVCAR-5 ovarian): 62.7 µM; TGI (OVCAR-5 ovarian): > 100 µM; GI50 (SK-OV-3 ovarian): > 100 µM; TGI (SK-OV-3 ovarian): > 100 µM; GI50 (LXFL 529 NSCLC): 17.2 µM; TGI (LXFL 529 NSCLC): > 100 µM; GI50 (HCT-116 colon): 10.6 µM; TGI (HCT-116 colon): > 100 µM; GI50 (SW-620 colon): 41.4 µM; TGI (SW-620 colon): > 100 µM; GI50 (ACHN renal): 31.8 µM; TGI (ACHN renal): > 100 µM; GI50 (DMS 273 small cell lung): 95.8 µM; TGI (DMS 273 small cell lung): > 100 µM; GI50 (UO-31 renal): 17.1 µM; TGI (UO-31 renal): 82.9 µM; GI50 (SNB-19 CNS): 59.4 µM; TGI (SNB-19 CNS): > 100 µM; GI50 (M19-MEL melanoma): 39.8 µM; TGI (M19-MEL melanoma): > 100 µM; GI50 (SK-MEL-2 melanoma): 55.7 µM; TGI (SK-MEL-2 melanoma): > 100 µM; GI50 (HOP-92 NSCLC): 11.1 µM; TGI (HOP-92 NSCLC): 92.4 µM; GI50 (NCI-H23 lung): 51.1 µM; TGI (NCI-H23 lung): > 100 µM; GI50 (TK-10 renal): > 100 µM; TGI (TK-10 renal): > 100 µM; GI50 (U251 CNS): 47.2 µM; TGI (U251 CNS): > 100 µM; GI50 (IGROV1 ovarian): 64.6 µM; TGI (IGROV1 ovarian): > 100 µM; GI50 (A549 NSCLC): > 100 µM; TGI (A549 NSCLC): > 100 µM; GI50 (OVCAR-8 ovarian): 99.2 µM; TGI (OVCAR-8 ovarian): > 100 µM; GI50 (MALME-3M melanoma): 21.1 µM; TGI (MALME-3M melanoma): > 100 µM; GI50 (K-562 leukemia): 32.8 µM; TGI (K-562 leukemia): > 100 µM; GI50 (EKVX NSCLC): 56.6 µM; TGI (EKVX NSCLC): > 100 µM; GI50 (COLO 205 colon): 91.5 µM; TGI (COLO 205 colon): > 100 µM; GI50 (SF-268 CNS): 11.6 µM; TGI (SF-268 CNS): > 100 µM; GI50 (OVCAR-3 ovarian): 8.06 µM; TGI (OVCAR-3 ovarian): > 100 µM; GI50 (SK-MEL-5 melanoma): 33.7 µM; TGI (SK-MEL-5 melanoma): > 100 µM; GI50 (HCT-15 colon): 26.3 µM; TGI (HCT-15 colon): > 100 µM; GI50 (RPMI-8226 leukemia): 31.6 µM; TGI (RPMI-8226 leukemia): > 100 µM; GI50 (DLD-1 colon): 38.8 µM; TGI (DLD-1 colon): > 100 µM; GI50 (NCI-H460 lung): > 100 µM; TGI (NCI-H460 lung): > 100 µM; GI50 (SN12C renal): 80.1 µM; TGI (SN12C renal): > 100 µM; GI50 (OVCAR-4 ovarian): 53.8 µM; TGI (OVCAR-4 ovarian): > 100 µM; GI50 (UACC-257 melanoma): 35.7 µM; TGI (UACC-257 melanoma): > 100 µM; GI50 (CCRF-CEM leukemia): 6.92 µM; TGI (CCRF-CEM leukemia): > 100 µM; GI50 (HL-60(TB) leukemia): 7.85 µM; TGI (HL-60(TB) leukemia): 82.1 µM; GI50 (NCI-H522 lung): 45.7 µM; TGI (NCI-H522 lung): > 100 µM; GI50 (UACC-62 melanoma): 21.1 µM; TGI (UACC-62 melanoma): > 100 µM; GI50 (A498 renal): > 100 µM; TGI (A498 renal): > 100 µM; GI50 (KM12 colon): 67.8 µM; TGI (KM12 colon): > 100 µM; GI50 (786-0 renal): 34.7 µM; TGI (786-0 renal): > 100 µM; GI50 (SNB-75 CNS): 21.3 µM; TGI (SNB-75 CNS): 69.6 µM; GI50 (LOX IMVI melanoma): 77.2 µM; TGI (LOX IMVI melanoma): > 100 µM
